Assay results as given in patent US10016382B2, “Method for decreasing skeletal muscle damage and/or oxidative stress in mammals” (LONZA INC., priority 2014, dated 2018).
Where “and” joins values, the source holds several entries; their conditions need not be identical. Equal values may be shown once.

Experiments:
[1] = test system: Labrador Retrievers; assay: Activity by Actical monitors, short (sprint) runs, Example 1; type: in vivo, dog; conditions: Ex.1, 250 mg/d; for Activity short runs, Least Sq Mean: average of weekly short runs over 13 wk, mixed model
Text: Each test dog wore an Actical activity monitor from Philips Respironics on a collar for the short higher intensity runs and also wore an Actical activity monitor for the weekly longer endurance runs. The activity data was downloaded into spread sheets along with each dogs identity. Twenty four hours after each long run during the 13 wk running program each of the dogs were scored by kennel staff for soreness or any type of lameness The exercise program was decreased in a tapering program during wk 11 and 12 to allow the dogs to rest for the final long run completed on wk 13. Pre-run serum samples from each test dog was taken 24 hr before the last endurance run. The heart rate and basal body temperature was determined for each test dog prior to the last long endurance run. Exercise Regimen: Each group of dogs were put through two different types of exercise programs on a weekly basis. The exercise regimen consisted of both sprint (short runs) and endurance (long runs) type work during the 90 day period. Each group of dogs were put through a simulated amount of work that would be equal to competing in an AKC Junior Hunt Test (American […] Club) and also once a week the dogs were put through a simulated endurance run. Each group of test dogs ran the AKC Hunt Test workout 26 times during the 13 wk study which was 2 times per week. During each week, each group ran the test 2 times with 1 day rest between runs. The AKC Hunt Test workout during the initial week amounted to two days of 6 consecutive sprint type retrieves for a minimum of 100 yd each way making a total of 1200 yd per day or 2400 yd per wk. The dogs brought back a bumper (equivalent to a duck or mark) to the handler during the exercise. […] The length of time involved in the intense exercise simulating the AKC Hunt Test was approximately 10 to 15 minutes per dog each of the short run days and was equal for both treatments. The rest time between retrieves (sprints) in a set during the simulated weekly AKC Hunt Test was equal for all dogs. Performance and Recovery Time: An Actical monitor (Philips Respironics) was worn around the neck of each dog on a collar and utilized to evaluate the amount of movement (measured total movements and intensity) for each dog for the purpose of evaluating equal work between treatments and also to evaluate the individual work intensity while completing the daily retrieves. Each dog wore the Actical monitor for each long run and wore the Actical monitor for the final 15 mile run. The Actical monitor data was downloaded to a computer for evaluation. Statistical Methods: GraphPad Prism 6.0 was used to compare means between groups for run time, food intake, body weight, and changes in blood chemistry using an unpaired t-test. Results were considered significant if a p-value of 0.05 was obtained. JMP 10.0.2 was used to create a mixed model for long runs, short runs, body composition, and blood chemistry.

[2] = test system: Labrador Retrievers; assay: Heart rate and body temperature recovery following 15 mile run, Example 2 part one; type: in vivo, dog; conditions: for Temperature After Run: in °F (unit assumed)
Procedure: Each performance dog wore the Actical activity monitor and GPS tracking collar during the last 15 mile endurance run. The final run was conducted in a manner analogous to that of Example 1. All activity was accurately and precisely calculated using the GPS tracking monitors. Immediately following the 15 mile endurance run, each dog was placed in a kennel and evaluated for recovery time in body temperature (every 15 minutes for 2 hours) and heart rate (every 2 minutes for up to 20 minutes until basal beats per minute (BPM) was reached). Body temperature and heart rate were measured as described in Example 1.

C[N+](C)(C)C[C@H](O)CC(=O)[O-] [L-carnitine]
Activity short runs, APM/lb Mean ([1]; Week 3, both sexes): 1479 Movements/Mile/LB BW | Activity short runs, APM/lb Mean ([1]; Week 3, females): 1636 Movements/Mile/LB BW | Activity short runs, APM/lb Mean ([1]; Week 3, males): 1338 Movements/Mile/LB BW | Activity short runs, APM/lb Mean ([1]; Week 4, both sexes): 1402 Movements/Mile/LB BW | Activity short runs, APM/lb Mean ([1]; Week 4, females): 1608 Movements/Mile/LB BW | Activity short runs, APM/lb Mean ([1]; Week 4, males): 1234 Movements/Mile/LB BW | Activity short runs, APM/lb Mean ([1]; Week 5, both sexes): 1314 Movements/Mile/LB BW | Activity short runs, APM/lb Mean ([1]; Week 5, females): 1362 Movements/Mile/LB BW | Activity short runs, APM/lb Mean ([1]; Week 5, males): 1275 Movements/Mile/LB BW | Activity short runs, APM/lb Mean ([1]; Week 6, both sexes): 1375 Movements/Mile/LB BW | Activity short runs, APM/lb Mean ([1]; Week 6, females): 1340 Movements/Mile/LB BW | Activity short runs, APM/lb Mean ([1]; Week 6, males): 1403 Movements/Mile/LB BW | Activity short runs, APM/lb Mean ([1]; Week 7, both sexes): 1380 Movements/Mile/LB BW | Activity short runs, APM/lb Mean ([1]; Week 7, females): 1347 Movements/Mile/LB BW | Activity short runs, APM/lb Mean ([1]; Week 7, males): 1407 Movements/Mile/LB BW | Activity short runs, APM/lb Mean ([1]; Week 8, both sexes): 1249 Movements/Mile/LB BW | Activity short runs, APM/lb Mean ([1]; Week 8, females): 1330 Movements/Mile/LB BW | Activity short runs, APM/lb Mean ([1]; Week 8, males): 1183 Movements/Mile/LB BW | Activity short runs, APM/lb Mean ([1]; Week 9, both sexes): 1234 Movements/Mile/LB BW | Activity short runs, APM/lb Mean ([1]; Week 9, females): 1388 Movements/Mile/LB BW | Activity short runs, APM/lb Mean ([1]; Week 9, males): 1108 Movements/Mile/LB BW | Activity short runs, APM/lb Mean ([1]; Week 10, both sexes): 1114 Movements/Mile/LB BW | Activity short runs, APM/lb Mean ([1]; Week 10, females): 1222 Movements/Mile/LB BW | Activity short runs, APM/lb Mean ([1]; Week 10, males): 1026 Movements/Mile/LB BW | Activity short runs, APM/lb Mean ([1]; Week 11, both sexes): 1111 Movements/Mile/LB BW | Activity short runs, APM/lb Mean ([1]; Week 11, females): 1128 Movements/Mile/LB BW | Activity short runs, APM/lb Mean ([1]; Week 11, males): 1098 Movements/Mile/LB BW | Activity short runs, APM/lb Mean ([1]; Week 12, both sexes): 2500 Movements/Mile/LB BW | Activity short runs, APM/lb Mean ([1]; Week 12, females): 2804 Movements/Mile/LB BW | Activity short runs, APM/lb Mean ([1]; Week 12, males): 2251 Movements/Mile/LB BW | Activity short runs, APM/lb Mean ([1]; Week 13, both sexes): 1741 Movements/Mile/LB BW | Activity short runs, APM/lb Mean ([1]; Week 13, females): 1661 Movements/Mile/LB BW | Activity short runs, APM/lb Mean ([1]; Week 13, males): 1806 Movements/Mile/LB BW | Activity short runs, Least Sq Mean ([1]; both sexes): 1451 Movements/Mile/LB BW and 1451.0357 Movements/Mile/LB BW | Activity short runs, Least Sq Mean ([1]; females): 1522 Movements/Mile/LB BW and 1528.6226 Movements/Mile/LB BW | Activity short runs, Least Sq Mean ([1]; males): 1373.4487 Movements/Mile/LB BW | Heartrate after run ([2]; Ex.2 part one, 250 mg/d, 4 minutes post final run, both sexes): 156.15 BPM | Heartrate after run ([2]; Ex.2 part one, 250 mg/d, 4 minutes post final run, males): 160 BPM | Heartrate after run ([2]; Ex.2 part one, 250 mg/d, immediately following 15 mile run, both sexes): 184.23 BPM | Return to basal temperature vs control (regression model) ([2]; Ex.2 part one, 250 mg/d, males and females, FIGS. 5A, 5B): reached basal temperatures faster | Return to basal heart rate vs control (regression model) ([2]; Ex.2 part one, 250 mg/d, overall group, males and females, FIGS. 4A, 4B): reached basal heart rate faster | Temperature After Run ([2]; Females, Temp - 0 min after 15 mile run): 105.16 ± 0.35 | Temperature After Run ([2]; Females, Temp - 15 min after 15 mile run): 102.69 ± 0.24 | Temperature After Run ([2]; Females, Temp - 30 min after 15 mile run): 101.31 ± 0.2 | Temperature After Run ([2]; Females, Temp - 45 min after 15 mile run): 101.16 ± 0.2 | Temperature After Run ([2]; Females, Temp - 60 min after 15 mile run): 101.14 ± 0.2 | Heartrate After Run ([2]; Females, Time - 0 min after 15 mile run): 180.83 ± 3.36 BPM | Heartrate After Run ([2]; Females, Time - 2 min after 15 mile run): 165 ± 6.09 BPM | Heartrate After Run ([2]; Females, Time - 4 min after 15 mile run): 152.31 ± 6.71 BPM | Heartrate After Run ([2]; Females, Time - 6 min after 15 mile run): 149.17 ± 6.21 BPM | Heartrate After Run ([2]; Females, Time - 8 min after 15 mile run): 135 ± 6.34 BPM | Heartrate After Run ([2]; Females, Time - 10 min after 15 mile run): 117.9 ± 7.45 BPM | Heartrate After Run ([2]; Females, Time - 12 min after 15 mile run): 113.08 ± 8.5 BPM | Heartrate After Run ([2]; Females, Time - 14 min after 15 mile run): 107.27 ± 8.95 BPM | Heartrate After Run ([2]; Females, Time - 16 min after 15 mile run): 78.57 ± 5.73 BPM | Heartrate After Run ([2]; Females, Time - 18 min after 15 mile run): 77.86 ± 5.47 BPM | Heartrate After Run ([2]; Females, Time - 20 min after 15 mile run): 77.14 ± 5.29 BPM | Temperature After Run ([2]; Males, Temp - 0 min after 15 mile run): 105.79 ± 0.36 | Temperature After Run ([2]; Males, Temp - 15 min after 15 mile run): 102.39 ± 0.4 | Temperature After Run ([2]; Males, Temp - 30 min after 15 mile run): 100.94 ± 0.23 | Temperature After Run ([2]; Males, Temp - 45 min after 15 mile run): 100.87 ± 0.19 | Temperature After Run ([2]; Males, Temp - 60 min after 15 mile run): 100.87 ± 0.19 | Heartrate After Run ([2]; Males, Time - 0 min after 15 mile run): 187.14 ± 3.54 BPM | Heartrate After Run ([2]; Males, Time - 2 min after 15 mile run): 172.14 ± 3.81 BPM | Heartrate After Run ([2]; Males, Time - 4 min after 15 mile run): 160 ± 4.94 BPM | Heartrate After Run ([2]; Males, Time - 6 min after 15 mile run): 142.86 ± 5.59 BPM | Heartrate After Run ([2]; Males, Time - 8 min after 15 mile run): 129.29 ± 5.29 BPM | Heartrate After Run ([2]; Males, Time - 10 min after 15 mile run): 122.86 ± 3.7 BPM | Heartrate After Run ([2]; Males, Time - 12 min after 15 mile run): 108.57 ± 3.76 BPM | Heartrate After Run ([2]; Males, Time - 14 min after 15 mile run): 95 ± 3.1 BPM | Heartrate After Run ([2]; Males, Time - 16 min after 15 mile run): 92.14 ± 3 BPM | Heartrate After Run ([2]; Males, Time - 18 min after 15 mile run): 89.29 ± 2.21 BPM | Heartrate After Run ([2]; Males, Time - 20 min after 15 mile run): 89.29 ± 2.21 BPM | Temperature After Run ([2]; Whole Groups, Temp - 0 min after 15 mile run): 105.48 ± 0.25 | Temperature After Run ([2]; Whole Groups, Temp - 15 min after 15 mile run): 102.54 ± 0.23 | Temperature After Run ([2]; Whole Groups, Temp - 30 min after 15 mile run): 101.12 ± 0.15 | Temperature After Run ([2]; Whole Groups, Temp - 45 min after 15 mile run): 101.01 ± 0.14 | Temperature After Run ([2]; Whole Groups, Temp - 60 min after 15 mile run): 101.01 ± 0.14 | Heartrate After Run ([2]; Whole Groups, Time - 0 min after 15 mile run): 184.23 ± 2.49 BPM | Heartrate After Run ([2]; Whole Groups, Time - 2 min after 15 mile run): 168.85 ± 3.48 BPM | Heartrate After Run ([2]; Whole Groups, Time - 4 min after 15 mile run): 156.15 ± 4.15 BPM | Heartrate After Run ([2]; Whole Groups, Time - 6 min after 15 mile run): 145.77 ± 4.12 BPM | Heartrate After Run ([2]; Whole Groups, Time - 8 min after 15 mile run): 131.92 ± 4.04 BPM | Heartrate After Run ([2]; Whole Groups, Time - 10 min after 15 mile run): 120.79 ± 3.72 BPM | Heartrate After Run ([2]; Whole Groups, Time - 12 min after 15 mile run): 110.74 ± 4.46 BPM | Heartrate After Run ([2]; Whole Groups, Time - 14 min after 15 mile run): 100.4 ± 4.38 BPM | Heartrate After Run ([2]; Whole Groups, Time - 16 min after 15 mile run): 85.36 ± 3.43 BPM | Heartrate After Run ([2]; Whole Groups, Time - 18 min after 15 mile run): 83.57 ± 3.1 BPM | Heartrate After Run ([2]; Whole Groups, Time - 20 min after 15 mile run): 83.21 ± 3.05 BPM
